Assay: Inhibition of hepatitis B virus capsid assembly infected in human HepG2.215 cells assessed as reduction in viral DNA replication measured on day 7 by real time PCR analysis

| Compound | EC50 [nM] |
| --- | --- |
| CCOC(=O)C1=C(COCCOC)NC(c2nccs2)=NC1c1ccc(F)cc1Cl (configuration not stated) | 200 |
| CCOC(=O)C1=C(CO)NC(c2nccs2)=NC1c1ccc(F)cc1Cl (configuration not stated) | > 16400 |
| CCOC(=O)C1=C(CN2CCOCC2)NC(n2nnc(C)n2)=NC1c1ccc(F)cc1Br (configuration not stated) | > 16400 |
| CCOC(=O)C1=C(CN2CC[S+]([O-])CC2)NC(c2nccs2)=NC1c1ccc(F)cc1Cl (configuration not stated) | 100 |
| CCOC(=O)C1=C(CN2CCOCC2)NC(c2nccs2)=NC1c1ccc(F)cc1-c1ccc(C(F)(F)F)cc1 (configuration not stated) | > 16400 |
| CCCOCC1=C(C(=O)OCC)C(c2ccc(F)cc2Cl)N=C(c2nccs2)N1 (configuration not stated) | 1200 |
| C[C@H](Cn1cnc2c(N)ncnc21)OCP(=O)(O)O [CHEBI:63625] | 242 |
| CCOC(=O)C1=C(CN2CCOCC2)NC(n2cnnn2)=NC1c1ccc(F)cc1Br (configuration not stated) | > 16400 |
| CCOC(=O)C1=C(CN2CCOCC2)NC(c2nccn2C)=NC1c1ccc(F)cc1Br (configuration not stated) | 20 |
| CC1=C(C(=O)OC(C)(C)C)C(c2ccc(F)cc2Cl)N=C(c2nccs2)N1 (configuration not stated) | > 16400 |
| CCOC(=O)C1=C(CN2CCS(=O)(=O)CC2)NC(c2nccs2)=NC1c1ccc(F)cc1Cl (configuration not stated) | 80 |
| CCOC(=O)C1=C(CN2CCOCC2)N(C)C(c2nccs2)=NC1c1ccc(F)cc1Cl (configuration not stated) | > 16400 |
| CCOC(=O)C1=C(CN2CCOCC2)NC(c2nccs2)=NC1c1ccccc1F (configuration not stated) | 74 |
| CCOC(=O)C1=C(CN2CCNCC2)NC(c2nccs2)=NC1c1ccc(F)cc1Cl (configuration not stated) | > 16400 |
| Cc1cn([C@@H]2C[C@@H](O)[C@H](CO)O2)c(=O)[nH]c1=O [CHEBI:63624] | 819 |
| CCOC(=O)C1=C(CN2CCOCC2)NC(c2nccs2)=NC1c1ccc(F)cc1F (configuration not stated) | 26 |
| CCOC(=O)C1=C(CNCCO)NC(c2nccs2)=NC1c1ccc(F)cc1Cl (configuration not stated) | 900 |
| CCOC(=O)C1=C(CN)NC(c2nccs2)=NC1c1ccc(F)cc1Cl (configuration not stated) | 5100 |
| CCOC(=O)C1=C(CN2CCOCC2)NC(c2ncn(C)n2)=NC1c1ccc(F)cc1Br (configuration not stated) | 4300 |

| Compound | EC50 [nM] |
| --- | --- |
| CCOC(=O)C1=C(CN2CCOCC2)NC(c2ncc(F)cc2F)=NC1c1ccc(F)cc1Br (configuration not stated) | 6 |
| COC(=O)C1=C(C)NC(c2nccs2)=N[C@H]1c1ccc(F)cc1Cl | 100 |
| CCOC(=O)C1=C(C)NC(c2nccs2)=NC1c1ccc(F)cc1Cl (configuration not stated) | 150 |
| CCOC(=O)C1=C(CN2CCOCC2)NC(c2nccs2)=NC1c1ccc(F)cc1-c1ccc(OC)cc1 (configuration not stated) | > 16400 |
| CC1=C(C(=O)OC(C)C)C(c2ccc(F)cc2Cl)N=C(c2nccs2)N1 (configuration not stated) | > 16400 |
| CCOC(=O)C1=C(CN2CCOCC2)NC(c2nnc(C)s2)=NC1c1ccc(F)cc1Br (configuration not stated) | > 16400 |
| COC(=O)C1=C(C)NC(c2nccs2)=NC1c1ccc(F)cc1Cl (configuration not stated) | 250 |
| CC1=C(C(=O)O)C(c2ccc(F)cc2Cl)N=C(c2nccs2)N1 (configuration not stated) | > 16400 |
| CCOC(=O)C1=C(CN2CCOCC2)NC(c2nccs2)=NC1c1ccccc1Br (configuration not stated) | 10 |
| Nc1ncnc2c1ncn2CCOCP(=O)(O)O [9-[2-phosphonomethoxyethyl]adenine] | 83 |
| CCOC(=O)C1=C(COC)NC(c2nccs2)=NC1c1ccc(F)cc1Cl (configuration not stated) | > 16400 |
| CC1=C(C(=O)NN)C(c2ccc(F)cc2Cl)N=C(c2nccs2)N1 (configuration not stated) | > 16400 |
| C=C1[C@H](CO)[C@@H](O)C[C@@H]1n1cnc2c(=O)[nH]c(N)nc21 [CHEBI:473990] | 0.24 |
| CCOC(=O)C1=C(CN2CCCCC2)NC(c2nccs2)=NC1c1ccc(F)cc1Cl (configuration not stated) | 3500 |
| CC1=C(C(N)=O)C(c2ccc(F)cc2Cl)N=C(c2nccs2)N1 (configuration not stated) | > 16400 |
| CNC(=O)C1=C(C)NC(c2nccs2)=NC1c1ccc(F)cc1Cl (configuration not stated) | > 16400 |
| CCOC(=O)C1=C(CN2CCSCC2)NC(c2nccs2)=NC1c1ccc(F)cc1Cl (configuration not stated) | 250 |
| CCOCC1=C(C(=O)OCC)C(c2ccc(F)cc2Cl)N=C(c2nccs2)N1 (configuration not stated) | 800 |
